Source: US11339177B2, “Heteroaryl compounds as inhibitors of necrosis, composition and method using the same” (ACCRO BIOSCIENCE INC., priority 2017, dated 2022)

Tests used:
[1] = tested on: HT29 cells; experiment: Necroptosis assay in HT29 cells (TNF-α, Smac mimetic, z-VAD; cell viability); assay type: cell-based; conditions: Homo sapiens, HT-29; TNF-α (40 ng/mL), Smacmimetic (100 nM), z-VAD (20 μM), 48 hours
Method: Human colon cancer HT29 cells were used in a necroptosis assay. For this assay, HT29 cells were added to 96-well plates and then were pre-treated with 10 μM of the test compound for one hour. Then the cells were treated with TNF-α (40 ng/mL), Smacmimetic (100 nM) and z-VAD (20 μM) for 48 hours, and the viability of cells was quantified. DMSO pretreatment group was used as negative controls, Nec-1 pretreatment group was used as positive controls.
In Table 2, (1) “ND” indicates “not detected;” (2) Explanation for inhibition %: Taking Compound B14 as an example, its inhibition % was 30% (50 nM). It means that the when Compound B14 at a concentration of 50 nM was used in the HT29 Cell Assay, the necrosis of cells were inhibited at 30%.

[2] = tested on: L929 cells; experiment: Necroptosis assay in L929 cells (TNF-α, z-VAD; cell viability by ATP levels); assay type: cell-based; conditions: Mus musculus, TNF-α (40 ng/mL), z-VAD (20 μM), 48 hours
Method: […] Then the cells were treated with TNF-α (40 ng/mL) and z-VAD (20 μM) for 48 hours, and the viability of cells was quantified by detecting adenosine triphosphate (ATP) levels. DMSO pretreatment group was used as negative controls, Nec-1 pretreatment group was used as positive controls.

In the case of `O=C(Nc1nc2ccc(-c3cnc4c(c3)N(C(=O)OCC3CC3)CC4)cc2s1)C1CC1` [Compound B66], the IC50 [1] is reported as 0.39 nM and the IC50 [2] is reported as 0.73 nM.

For `Nc1cn2nc(-c3cnc4c(c3)N(C(=O)OC3CCCCC3)CCO4)ccc2n1` [Compound B11], the IC50 [1] was 500 nM and the IC50 [2] was 8.9 nM.

With `O=C(Nc1nc2ccc(-c3cnc4c(c3)N(C(=O)OC3CCOCC3)CCO4)cc2s1)C1CC1` [Compound B16] the IC50 [1] was 4 nM and the IC50 [2] was 1.5 nM.

In the case of `O=C(Nc1nc2ccc(-c3cnc4c(c3)N(C(=O)OC3CCCCC3)CCO4)cc2s1)C1CC1` [Compound B3], the IC50 [1] is reported as 0.5 nM and the IC50 [2] is reported as 0.59 nM.

Compound `CNC(=O)Nc1nc2ccc(-c3cnc4c(c3)N(C(=O)OC3CCOCC3)CC4)cc2s1` [Compound B60, Tetrahydro-2H-pyran-4-yl6-(2-(3-methylureido)benzo[d]thiazol-6-yl)-2,3-dihydro-1H-pyrrolo[3,2-b]pyridine-1-carboxylate] has an IC50 [1] of 1.3 nM and an IC50 [2] of 2.8 nM.

Work on `CN1CCC(OC(=O)N2CCc3ncc(-c4ccc5nc(NC(=O)C6CC6)sc5c4)cc32)CC1` [Compound B68, 1-methylpiperidin-4-yl-6-(2-(cyclopropanecarboxamido)benzo[d]thiazol-6-yl)-2,3-dihydro-1H-pyrrolo[3,2-b]pyridine-1-carboxylate] yielded an IC50 [1] of 30 nM and an IC50 [2] of 28.3 nM.

`O=C(Nc1cn2nc(-c3cnc4c(c3)N(C(=O)OC3CCCCC3)CCO4)ccc2n1)C1CC1` [Compound B13] was tested, and the IC50 [1] was 1.3 nM and the IC50 [2] was 0.7 nM.

`CC(=O)Nc1nc2ccc(-c3cnc4c(c3)N(C(=O)OC3CCCCC3)C[C@@H](C)O4)cc2s1` [Compound B37, Cyclohexyl-(R)-7-(2-acetamidobenzo[d]thiazol-6-yl)-3-methyl-2,3-dihydro-1H-pyrido[2,3-b][1,4]oxazine-1-carboxylate] showed an IC50 [1] of 32 nM and an IC50 [2] of 30 nM.

`O=C(Nc1cn2cc(-c3cnc4c(c3)N(C(=O)OC3CCCCC3)CCO4)ccc2n1)C1CC1` [Compound B9] gave an IC50 [1] of 0.5 nM and an IC50 [2] of 0.2 nM.

With `O=C(Nc1cn2nc(-c3cnc4c(c3)N(C(=O)OC3CCOCC3)CCO4)ccc2n1)C1CC1` [Compound B21] the IC50 [1] was 50 nM and the IC50 [2] was 31 nM.

`CC(=O)Nc1cn2cc(-c3cnc4c(c3)N(C(=O)OC3CCCCC3)CCO4)ccc2n1` [Compound B8] was tested, and the IC50 [1] was 1 nM and the IC50 [2] was 1.5 nM.

Work on `CC(=O)Nc1nc2ccc(-c3cnc4c(c3)N(C(=O)OC3CCCOC3)CCO4)cc2s1` (stereo not drawn) [Compound B25] yielded an IC50 [1] of 17 nM and an IC50 [2] of 10 nM.

Compound `O=C(Nc1cn2cc(-c3cnc4c(c3)N(C(=O)OC3CCOCC3)CCO4)ccc2n1)C1CC1` [Compound B19] has an IC50 [1] of 20 nM and an IC50 [2] of 10 nM.

`CC(=O)Nc1cn2nc(-c3cnc4c(c3)N(C(=O)OC3CCOCC3)CC4)ccc2n1` [Compound B57] gave an IC50 [1] of 600 nM and an IC50 [2] of 90 nM.

With `CC(C)OC(=O)N1CCc2ncc(-c3ccc4nc(NC(=O)C5CC5)sc4c3)cc21` [Compound B65] the IC50 [1] was 3.2 nM and the IC50 [2] was 4.5 nM.

With `CC(=O)Nc1nc2ccc(-c3cnc4c(c3)N(C(=O)OC3CCCCC3)CCO4)cn2n1` [Compound B7] the IC50 [1] was 46 nM and the IC50 [2] was 20 nM.

For `O=C(Nc1nc2ccc(-c3cnc4c(c3)N(C(=O)OC3CCS(=O)(=O)CC3)CC4)cc2s1)C1CC1` [Compound B69, 1,1-dioxidotetrahydro-2H-thiopyran-4-yl6-(2-(cyclopropanecarboxamido)benzo[d]thiazol-6-yl)-2,3-dihydro-1H-pyrrolo[3,2-b]pyridine-1-carboxylate], the IC50 [1] was 4.8 nM and the IC50 [2] was 15 nM.

`CC(=O)Nc1nc2ccc(-c3cnc4c(c3)N(C(=O)OC3CCCCC3)C[C@H](C)O4)cc2s1` [Compound B38] was tested, and the IC50 [1] was 3500 nM and the IC50 [2] was 15 nM.

In the case of `O=C(Nc1nc2ccc(-c3cnc4c(c3)N(C(=O)OC3CCOCC3)CCO4)nc2s1)C1CC1` [Compound B35], the IC50 [1] is reported as 36 nM and the IC50 [2] is reported as 1 nM.

`Nc1nc2ccc(-c3cnc4c(c3)N(C(=O)OC3CCCCC3)CCO4)cc2s1` [Compound B1] was tested, and the IC50 [1] was 11 nM and the IC50 [2] was 3.6 nM.

With `CC(=O)Nc1nc2ccc(-c3cnc4c(c3)N(C(=O)OC(C)C3CC3)CCO4)cc2s1` (stereo not drawn) [Compound B24] the IC50 [1] was 18 nM and the IC50 [2] was 5 nM.
